In series [1] the test system is HBL1 cells. As to the kind of experiment: Cell proliferation and survival assay (MTT). The conditions noted are these: 96 hours, data not shown. Type of series: cell-based.
Series [2] deals with HBL1 cells. Kind of series: IL-6 assay (ELISA of supernatant). Type of series: cell-based. The conditions noted are these: CD79 mutant, 48 hours, data not shown.
In another series the target is Human PKC delta (Homo sapiens, UniProt Q05655). As to the kind of experiment: Inhibition of PKC isoforms, in vitro assay. Type of series: biochemical. From the text:
The methods for these determinations have been described (Grant, et al. 2010, Eur J Pharmacol. 627:16-25).

Series [3] deals with TMD8 cells. Kind of series: Mouse xenograph model of DLBCL. Type of series: in vivo, SCID mice. The procedure:
To test the efficacy of Compound A in vivo, TMD8 cells were grown and subcutaneously injected into SCID mice. Large scale suspension culture of TMD8 cells was performed in T250 flasks, where cells were expanded weekly. Animals (n=24) were inoculated with 10×10^6 cells (10×10^6 cells in 100 μL volume of 50% Matrigel®) subcutaneously in the animal's right flank.

Series [4] relates to OCI-Ly3 cells. Kind of series: IL-6 assay (ELISA of supernatant). The format is cell-based. The conditions noted are these: OCI-Ly3 cells lacking activating CD79 mutations, 48 hours. How it is done:
(§1) TMD8 cells were grown in MEM media supplemented with 10% fetal calf serum (FCS), non-essential vitamin mix, and penicillin-streptomycin antibiotics (pen-strep). HBL1 cells were grown in RPMI-1640 media supplemented with 10% FCS and pen-strep. OCI-Ly3 cells were grown in DMEM media with 15% FCS, non-essential vitamin mix, pen-strep, and 25 mM HEPES buffer. Cells were maintained in suspension culture, fed twice weekly, and split 1:3 approximately every two weeks (TMD8, OCI-Ly3) or weekly (HBL1).
(§2) Cells were harvested via centrifugation and resuspended twice to rinse the media of any IL-6. Cells were then plated in 96 well plates at 5×10^5 cells per well and exposed to increasing concentrations of Compound A, sotrastaurin, or media containing 0.1% DMSO (negative control). For each cell type, experiments were performed in the media used for growth and maintenance. Cells were allowed to grow for 48 hours after plating in the presence of inhibitors. Following compound exposure, cells were pelleted in the 96 well plate, supernatant was removed, and the concentration of IL-6 in the supernatant was determined using R&D Systems Haman IL-6 Quantikine® ELISA Kit (D6050) according to manufacturer's instructions.

Series [5] relates to TMD8 cells. Kind of series: IL-6 assay (ELISA of supernatant). The conditions noted are these: for Inhibition of IL-6 production: TMD8 cells, CD79 mutant, 48 hours. Type of series: cell-based. How it is done:
as §1, §2

The subject of series [6] is OCI-Ly3 cells. Kind of series: Cell proliferation and survival assay (MTT). The format is cell-based. The conditions noted are these: 96 hours. How it is done:
(§3) TMD8 cells were grown in MEM media supplemented with 10% fetal calf serum (FCS), non-essential vitamin mix, and penicillin-streptomycin antibiotics (pen-strep). HBL1 cells were grown in RPMI-1640 media supplemented with 10% FCS and pen-strep. OCI-Ly3 cells were grown in DMEM media with 15% FCS, non-essential vitamin mix, pen-strep, and 25 mM HEPES buffer. Cells were maintained in suspension culture, fed twice weekly, and split 1:3 approximately every two weeks (TMD8, OCI-Ly3) or weekly (HBL1). Cells were cultured and maintained as described above, with cells always fed on the day prior to assay. Proliferation and survival of cells was quantified using an MTT assay kit according to manufacturer's instructions (Cell Proliferation Kit 1, Roche Diagnostics, Cat. No. 11 465 007 001). Experiments were performed in the same media used by each cell type for growth and maintenance. Cells (5×10^4) were plated in 96 well plates and allowed to grow for 96 hours in the presence of inhibitors. After the exposure period was completed, MTT reagent was added for 3-4 hours. The MTT solubilization reagent was then added to stop the reaction and cells were incubated overnight at 37° C. The plate read the next day according to the kit instructions.

The subject of series [7] is TMD8 cells. As to the kind of experiment: Cell proliferation and survival assay (MTT). The conditions noted are these: for Inhibition of cell proliferation and survival: TMD8 cells, MTT, 96 hours. Type of series: cell-based. How it is done: as §3
Another series concerns circulating lymphocytes. Kind of series: Peripheral lymphocyte levels, multiple ascending dose study. Type of series: in vivo, human. The conditions noted are these: healthy humans, 50, 100, 150, 200 mg BID, 14 days.
Where [8] appears, read: 120 mg/kg BID, SCID mice with TMD8 tumors.

Human PKC delta, sequence (Q05655 whole entry, canonical isoform): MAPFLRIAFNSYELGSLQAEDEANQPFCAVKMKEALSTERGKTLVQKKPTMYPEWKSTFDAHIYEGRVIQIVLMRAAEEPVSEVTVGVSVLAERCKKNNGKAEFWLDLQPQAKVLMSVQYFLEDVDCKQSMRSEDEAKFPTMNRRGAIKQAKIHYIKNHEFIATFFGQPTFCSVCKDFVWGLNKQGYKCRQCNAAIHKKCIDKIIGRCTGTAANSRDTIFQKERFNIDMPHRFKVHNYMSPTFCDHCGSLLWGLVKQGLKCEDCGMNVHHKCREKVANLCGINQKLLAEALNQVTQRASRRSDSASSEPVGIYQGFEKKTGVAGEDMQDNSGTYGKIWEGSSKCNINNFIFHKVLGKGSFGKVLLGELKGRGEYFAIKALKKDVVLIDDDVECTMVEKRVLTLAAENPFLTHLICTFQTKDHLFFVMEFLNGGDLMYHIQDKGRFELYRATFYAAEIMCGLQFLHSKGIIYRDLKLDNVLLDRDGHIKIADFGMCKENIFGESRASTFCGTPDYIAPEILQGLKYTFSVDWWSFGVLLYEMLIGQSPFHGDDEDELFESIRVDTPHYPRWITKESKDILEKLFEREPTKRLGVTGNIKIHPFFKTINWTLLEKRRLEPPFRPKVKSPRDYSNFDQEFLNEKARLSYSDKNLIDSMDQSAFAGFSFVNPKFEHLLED
Description for circulating lymphocytes: Normal, healthy human patients received various doses of Compound A for 14 days of dosing. The dose levels were as follows: cohort 1: 50 mg, BID; cohort 2: 100 mg, BID; cohort 3, 150 mg, BID; and cohort 4, 200 mg BID.

With `Cc1ncc(F)c(Nc2n[nH]c3c2CN(C(=O)N2C[C@@H](C)N(CC4CCOCC4)C[C@@H]2C)C3(C)C)n1` [Compound A, 5-{[(2S,5R)-2,5-dimethyl-4-(tetrahydro-2H-pyran-4-ylmethyl)piperazin-1-yl]carbonyl}-N-(5-fluoro-2-methylpyrimidin-4-yl)-6,6-dimethyl-1,4,5,6-tetrahydropyrrolo[3,4-c]pyrazol-3-amine], the “Inhibition of cell proliferation and survival” value is recorded as “dose-dependent inhibition” in the series with HBL1 cells [1], “not affected by either compound except at the highest doses tested” in the series with OCI-Ly3 cells [6] and “dose-dependent inhibition” with TMD8 cells [7]. Further, the figures for the “Inhibition of IL-6 production” value in the series with HBL1 cells [2], with OCI-Ly3 cells [4] and in the series on TMD8 cells [5] were “dose-dependent inhibition”, “not affected” and “dose-dependent inhibition”, respectively. Besides, the “Inhibition of PKC delta (in words)” value at Human PKC delta is recorded as “does not inhibit PKC delta to any appreciable degree”. Moreover, in the series on TMD8 cells [3] (120 mg/kg BID), the “Mean weight of vehicle treated group greater than Compound A treated animals” value was found to be 1.8 g. The “Body weight change from day 24-28” value with TMD8 cells [3] (setting [8]) is “no increase in body weight”. Moreover, the “Body weight, first 10 days of treatment” value in the series on TMD8 cells [3] (setting [8]) is recorded as “steady, slow increase”. Besides, the “Tumor growth (in words)” value in the series on TMD8 cells [3] (study days 20 to 28, 120 mg/kg BID) is “no appreciable amounts of tumor growth”. Besides, the “Potency in IL-6 assay compared to sotrastaurin” value with TMD8 cells [5] was “slightly more potent”. In addition, in the series on TMD8 cells [7], the “Potency in cell proliferation assay compared to sotrastaurin” value is recorded as “modestly more potent”. Besides, the “Number of circulating lymphocytes” value with circulating lymphocytes is listed as “dose dependent increase”.
Regarding `CN1CCN(c2nc(C3=C(c4c[nH]c5ccccc45)C(=O)NC3=O)c3ccccc3n2)CC1` [sotrastaurin, reference compound], the “Inhibition of IL-6 production” value in the series on OCI-Ly3 cells [4] is recorded as “not affected”; with TMD8 cells [5], “dose dependent inhibition”. In addition, the “Inhibition of cell proliferation and survival” value in the series with OCI-Ly3 cells [6] is reported as “not affected by either compound except at the highest doses tested”; in the series on TMD8 cells [7], “dose dependent inhibition”.

Source of the values: patent publication US20220000870A1, “TREATMENT OF CANCER” (MingSight Pharmaceuticals, Inc., priority 2016, published 2022).
